Key:
[1] = molecular target: T1, recombinant human B1 receptors (Homo sapiens, UniProt P46663); assay: Functional assay: antagonist potency by cytosolic calcium measurement (plate reader fluorimeter) in CHO-B1 cells, agonist LysDABK; assay type: cell-based; details: CHO-B1 cells, inhibition of LysDABK (EC80)-evoked [Ca2+]i elevation; read-out: B1 func.
T1 construct: host or cells: CHO (CHO-B1)
T1 sequence (P46663 1-353): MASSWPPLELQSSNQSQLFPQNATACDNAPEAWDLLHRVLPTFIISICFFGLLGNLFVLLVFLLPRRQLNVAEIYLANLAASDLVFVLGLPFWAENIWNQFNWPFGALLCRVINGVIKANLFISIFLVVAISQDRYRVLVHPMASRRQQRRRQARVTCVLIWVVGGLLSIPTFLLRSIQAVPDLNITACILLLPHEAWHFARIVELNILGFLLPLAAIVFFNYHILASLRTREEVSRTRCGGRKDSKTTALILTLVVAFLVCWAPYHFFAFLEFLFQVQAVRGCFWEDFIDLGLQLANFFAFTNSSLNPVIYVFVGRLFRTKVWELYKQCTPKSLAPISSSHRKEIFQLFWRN
Procedure, shortened: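 IC50 is the concentration giving half-maximal inhibition of the LysDABK (EC80) calcium response, fitted from at least three experiments. CHO cells stably expressing human B1 were dye-loaded, exposed to compound for 20-25 min, then read by fluo-4 fluorescence (ΔF/F) at 37 °C.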

[2] = molecular target: T2, human recombinant bradykinin B1 receptor (Homo sapiens, UniProt P46663); assay: Human recombinant bradykinin B1 receptor competitive radioligand binding; details: hB1 expressed in CHO cells, [3H]-[Des-Arg10] Kallidin radioligand; read-out: B1 binding
T2 construct: host or cells: CHO cells, clone hB1-A5
T2 sequence (P46663 1-353): T1 sequence (P46663 1-353)
Procedure, shortened: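 Competition radioligand binding on CHO-expressed hB1 membranes, using [3,4-prolyl-3,4-^3H(N)]-[Des-Arg^10] Kallidin as tracer, 15 min at 25° C. Excess Lys-des-Arg^9-Bradykinin (10 μM) set nonspecific binding. Sigmoidal fits of at least seven concentrations gave IC50, converted to Ki via Cheng-Prusoff; KD from Scatchard.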

| SMILES | IC50 [1] | Ki [2] |
| --- | --- | --- |
| Cc1nc(-c2c(Cl)c3ccccc3n2-c2ccc(CNC(=O)C3(NC(=O)c4cccc(I)c4)CC3)cc2)no1 [Example 176, N-(1-{4-[3-Chloro-2-(5-methyl-[1,2,4]oxadiazol-3-yl)-indol-1-yl]-benzylcarbamoyl}-cyclopropyl)-3-iodo-benzamide] | 20 to 100 nM | 20 to 100 nM |
| Cc1cnc(C(=O)NC2(C(=O)NCc3ccc(-n4c(-c5noc(C)n5)cc5cc(F)ccc54)cc3F)CC2)cn1 [Example 131, 5-Methyl-pyrazine-2-carboxylic acid (1-{2-fluoro-4-[5-fluoro-2-(5-methyl-[1,2,4]oxadiazol-3-yl)-indol-1-yl]-benzylcarbamoyl}-cyclopropyl)-amide] | 20 to 100 nM | < 20 nM |
| CC(NC(=O)C1(NC(=O)C(F)(F)F)CC1)c1ccc(-n2c(C(=O)N3CCCC3)c(Cl)c3ccccc32)cc1 (stereo not drawn) [Example 33, 1-(2,2,2-Trifluoro-acetylamino)-cyclopropanecarboxylic acid (1-{4-[3-chloro-2-(pyrrolidine-1-carbonyl)-indol-1-yl]-phenyl}-ethyl)-amide] | 100 to 500 nM | 20 to 100 nM |
| COc1cc(C(=O)NC2(C(=O)NCc3ccc(-n4c(-c5nnc(C)o5)c(Cl)c5cc(F)ccc54)cc3)CC2)on1 [Example 37, 3-Methoxy-isoxazole-5-carboxylic acid (1-{4-[3-chloro-5-fluoro-2-(5-methyl-[1,3,4]oxadiazol-2-yl)-indol-1-yl]-benzylcarbamoyl}-cyclopropyl)-amide] | < 20 nM | < 20 nM |
| COc1cc(C(=O)NC2(C(=O)N[C@H](C)c3ccc(-n4c(-c5noc(C)n5)c(Cl)c5ccccc54)cc3)CC2)on1 [Example 41, (R)-3-Methoxy-isoxazole-5-carboxylic acid [1-(1-{4-[3-chloro-2-(5-methyl-[1,2,4]oxadiazol-3-yl)-indol-1-yl]-phenyl}-ethylcarbamoyl)-cyclopropyl]-amide] | < 20 nM | < 20 nM |
| COc1cc(C(=O)NC2(C(=O)NCc3ccc(-n4c(-c5nnn(C)n5)c(Cl)c5cc(F)ccc54)cn3)CC2)on1 [Example 59, 3-Methoxy-isoxazole-5-carboxylic acid [1-({5-[3-chloro-5-fluoro-2-(2-methyl-2H-tetrazol-5-yl)-indol-1-yl]-pyridin-2-ylmethyl}-carbamoyl)-cyclopropyl]-amide] | < 20 nM | < 20 nM |
| Cc1noc(-c2cc3cc(F)ccc3n2-c2ccc(CNC(=O)C3(NC(=O)c4cncc(C(F)(F)F)c4)CC3)cc2)n1 [Example 102, N-(1-{4-[5-Fluoro-2-(3-methyl-[1,2,4]oxadiazol-5-yl)-indol-1-yl]-benzylcarbamoyl}-cyclopropyl)-5-trifluoromethyl-nicotinamide] | < 20 nM | < 20 nM |
| CSc1ccc(C(=O)NC2(C(=O)NCc3ccc(-n4c(-c5noc(C)n5)c(Cl)c5ccccc54)cc3)CC2)s1 [Example 173, 5-Methylsulfanyl-thiophene-2-carboxylic acid (1-{4-[3-chloro-2-(5-methyl-[1,2,4]oxadiazol-3-yl)-indol-1-yl]-benzylcarbamoyl}-cyclopropyl)-amide] | 20 to 100 nM | < 20 nM |
| Cc1cc(C(=O)NC2(C(=O)NCc3ccc(-n4c(-c5noc(C)n5)c(Cl)c5cc(Cl)ccc54)cc3)CC2)no1 [Example 73, 5-Methyl-isoxazole-3-carboxylic acid (1-{4-[3,5-dichloro-2-(5-methyl-[1,2,4]oxadiazol-3-yl)-indol-1-yl]-benzylcarbamoyl}-cyclopropyl)-amide] | < 20 nM | < 20 nM |
| Cc1nc(-c2c(Cl)c3ccccc3n2-c2ccc(CNC(=O)C3(NC(=O)c4sc(C)nc4C)CC3)cc2)no1 [Example 150, 2,4-Dimethyl-thiazole-5-carboxylic acid (1-{4-[3-chloro-2-(5-methyl-[1,2,4]oxadiazol-3-yl)-indol-1-yl]-benzylcarbamoyl}-cyclopropyl)-amide] | 20 to 100 nM | < 20 nM |
| COc1ccc2c(c1)cc(-c1nc(C)no1)n2-c1ccc(CNC(=O)C2(NC(=O)CC(F)(F)F)CC2)cc1 [Example 78, 1-(3,3,3-Trifluoro-propionylamino)-cyclopropanecarboxylic acid 4-[5-methoxy-2-(3-methyl-[1,2,4]oxadiazol-5-yl)-indol-1-yl]-benzylamide] | < 20 nM | < 20 nM |
| Cc1nc(-c2c(Cl)c3cc(Cl)ccc3n2-c2ccc(CNC(=O)C3(NC(=O)c4cc(C5CC5)on4)CC3)cc2)no1 [Example 75, 5-Cyclopropyl-isoxazole-3-carboxylic acid (1-{4-[3,5-dichloro-2-(5-methyl-[1,2,4]oxadiazol-3-yl)-indol-1-yl]-benzylcarbamoyl}-cyclopropyl)-amide] | < 20 nM | < 20 nM |
| COc1ccc2c(c1)cc(-c1nc(C)no1)n2-c1ccc(CNC(=O)C2(NC(=O)c3cc(OC)no3)CC2)cc1 [Example 80, 3-Methoxy-isoxazole-5-carboxylic acid (1-{4-[5-methoxy-2-(3-methyl-[1,2,4]oxadiazol-5-yl)-indol-1-yl]-benzylcarbamoyl}-cyclopropyl)-amide] | < 20 nM | < 20 nM |
| COc1ccc2c(c1)c(Cl)c(-c1noc(C)n1)n2-c1ccc(CNC(=O)C2(NC(=O)c3cnc(C)cn3)CC2)cc1 [Example 129, 5-Methyl-pyrazine-2-carboxylic acid (1-{4-[3-chloro-5-methoxy-2-(5-methyl-[1,2,4]oxadiazol-3-yl)-indol-1-yl]-benzylcarbamoyl}-cyclopropyl)-amide] | < 20 nM | < 20 nM |
| COc1cc(C(=O)NC2(C(=O)NCc3ccc(-n4c(-c5noc(C)n5)c(Cl)c5cc(F)ccc54)cc3F)CC2)on1 [Example 197, 3-Methoxy-isoxazole-5-carboxylic acid (1-{4-[3-chloro-5-fluoro-2-(5-methyl-[1,2,4]oxadiazol-3-yl)-indol-1-yl]-2-fluoro-benzylcarbamoyl}-cyclopropyl)-amide] | < 20 nM | < 20 nM |
| Cc1nc(-c2c(Cl)c3ccccc3n2-c2ccc(CNC(=O)C3(NC(=O)c4cccnc4F)CC3)cc2)no1 [Example 95, N-(1-{4-[3-Chloro-2-(5-methyl-[1,2,4]oxadiazol-3-yl)-indol-1-yl]-benzylcarbamoyl}-cyclopropyl)-2-fluoro-nicotinamide] | < 20 nM | < 20 nM |
| Cc1nnc(-c2c(Cl)c3ccccc3n2-c2ccc(CNC(=O)C3(NC(=O)CC(F)(F)F)CC3)cc2)o1 [Example 183, 1-(3,3,3-Trifluoro-propionylamino)-cyclopropanecarboxylic acid 4-[3-chloro-2-(5-methyl-[1,3,4]oxadiazol-2-yl)-indol-1-yl]-benzylamide] | 20 to 100 nM | 20 to 100 nM |
| Cc1nc(-c2c(Cl)c3ccccc3n2-c2ccc(CNC(=O)C3(NC(=O)C4CCCO4)CC3)cc2)no1 (stereo not drawn) [Example 136, Tetrahydro-furan-2-carboxylic acid (1-{4-[3-chloro-2-(5-methyl-[1,2,4]oxadiazol-3-yl)-indol-1-yl]-benzylcarbamoyl}-cyclopropyl)-amide] | 20 to 100 nM | 20 to 100 nM |
| COc1cc(C(=O)NC2(C(=O)NCc3ccc(-n4c(-c5nnn(C)n5)c(Cl)c5ccccc54)cn3)CC2)on1 [Example 60] | < 20 nM | < 20 nM |
| COc1cc(C(=O)NC2(C(=O)NCc3ccc(-n4c(C#N)cc5cc(Cl)ccc54)cc3)CC2)on1 [Example 43, 3-Methoxy-isoxazole-5-carboxylic acid {1-[4-(5-chloro-2-cyano-indol-1-yl)-benzylcarbamoyl]-cyclopropyl}-amide] | 20 to 100 nM | < 20 nM |
| Cc1nc(-c2c(Cl)c3cc(F)ccc3n2-c2ccc(CNC(=O)C3(NC(=O)c4cccc(F)c4)CC3)cc2)no1 [Example 86, N-(1-{4-[3-Chloro-5-fluoro-2-(5-methyl-[1,2,4]oxadiazol-3-yl)-indol-1-yl]-benzylcarbamoyl}-cyclopropyl)-3-fluoro-benzamide] | < 20 nM | < 20 nM |
| Cc1nc(-c2c(Cl)c3ccccc3n2-c2ccc(CNC(=O)C3(NC(=O)c4cncc(C(F)(F)F)c4)CC3)c(F)c2)no1 [Example 111, N-(1-{4-[3-Chloro-2-(5-methyl-[1,2,4]oxadiazol-3-yl)-indol-1-yl]-2-fluoro-benzylcarbamoyl}-cyclopropyl)-5-trifluoromethyl-nicotinamide] | < 20 nM | < 20 nM |
| N#Cc1cc2cc(Cl)ccc2n1-c1ccc(CNC(=O)C2(NC(=O)c3cncc(C(F)(F)F)c3)CC2)cc1 [Example 100, N-{1-[4-(5-Chloro-2-cyano-indol-1-yl)-benzylcarbamoyl]-cyclopropyl}-5-trifluoromethyl-nicotinamide] | < 20 nM | < 20 nM |
| Cc1cnc(C(=O)NC2(C(=O)NCc3ccc(-n4c(-c5nnn(C)n5)c(Cl)c5ccccc54)cc3)CC2)cn1 [Example 25, 5-Methyl-pyrazine-2-carboxylic acid (1-{4-[3-chloro-2-(2-methyl-2H-tetrazol-5-yl)-indol-1-yl]-benzylcarbamoyl}-cyclopropyl)-amide] | 20 to 100 nM | < 20 nM |

From patent US20130217702A1 (Richter Gedeon Nyrt., priority 2010, published 2013)
